“And” between values parts separate entries of the source, which are not always exact repeats. Identical values can stand only once.
Test: 1H NMR titration chloride binding studies
Conditions: calculated by multiplying K 11 and K 21
Protocol: Proton NMR titrations were performed in DMSO-d 6/0.5% H2O, to assess the ability of compounds 1d and 2–8 to bind chloride, added as the tetrabutylammonium (TBA) salt, in solution. […] However, in the presence of one equivalent of HPF6, strong binding to chloride was observed through downfield shifts of the pyrrole-NH, indole-NH and the protonated imine-NH^+. All three resonances were fitted globally to the 1:1 or 2:1 (sandwich) binding models using Bindfit[48].
S8. 1H NMR Titration Binding Studies
S8.1. Equipment and Sample Preparation
1H NMR titrations were performed on a Bruker Avance AVII400 FT -NMR spectrometer with either SEF 1H/D-19F or DUL D/1H-13C, 5 mm z-gradient probes, operating at a frequency of 400 MHz for 1H NMR with the probe temperature maintained at 298 K unless otherwise stated as determined using a variable temperature unit ([…]). For all NMR titrations, a constant host concentration w as maintained (~ 5.0 mM) by using the host solution to dissolve the guest to make the guest stock solution. Over the course of the titration Hamiltonian Microlitre syringes were used to add aliquots of the guest stock solution to the NMR sample of the host solution.
The anions were added as the tetrabutylammonium (TBA) salts after being dried under high vacuum (< 1.0 mmHg) for 24 h. Stock solutions of the host ( ~ 5.0 mM) were prepared in a DMSO -d6/0.5%H2O mixture. In some titrations, protonation of the host species was achieved through the addition of 1 eq. hexafluorophosphoric acid (HPF6) to the host stock solution. The host stock solutions, with or without addition of HPF6, ( 500 μL) were transferred to an air -tight screw-cap NMR sample tube (5 mm ID) and the same host stock solution was used to prepare the standard guest titrant solution containing approximately 100 mM of the TBA-anion salts. T his ensured a constant concentration of the host (~ 5.0 mM) for the duration of the titration experiment.
S8.2. Titration Procedure
Over the course of the titration small aliquots (2 -100 μL) of the standard guest solution were added to the host solution ( ~ 500 μL) in the NMR tube. For ea ch titration 15 -20 data points were collected and at the end of the titration approximately 10 equivalents of the guest anion salt were present.
Upon each addition of the standard guest solution the samples were thoroughly shaken in the NMR tube and then allowed to equilibrate for up to 2 minutes inside the NMR probe before the spectra were taken. Throughout each titration experiment all parameters of the NMR s pectrometer […]
S8.3. Titration Data Fitting
For each 1H NMR titration, all the proton resonances were monitored for changes in chemical shift.
In the case of protonated host species at least one proton resonance was followed and for the neutral host species two or more proton resonances were followed, which allowed several data sets to use in determination of the association constant (Ka). Global fitting takes into account all data sets at the same time and this improves the quality of the nonlinear curve fitting. The supramolecular.org web applet10 was used to fit the collected titration data and allows the use of different binding models to fit the data in the best way. For compounds 1d and 2-8 firstly the 1:1 […]
cooperative or additive, was used. The quality of fit is determined by the covariance of the fit (covfit), which is calculated by dividing the (co)variance of the residual (experimental data − calculated data) with the covariance of the experimental data. A covariance of fit factor (F covfit) can be obtained by dividing the covfir from the 1:1 binding model by the covfit from the 2:1 binding model. Due to the higher number of parameters from the 2:1 binding model an improvement in the covfit (i.e. F covfit)

| SMILES | Overall association constant β21 for the 2:1 host:guest complex [M⁻¹] |
| --- | --- |
| CCCCCc1cc(/N=C/c2[nH]c(C)cc2C)c2[nH]ccc2c1 [Perenosin 1d] | 333000 |
| CCCCCc1cc2cc(C)cc(/N=C/c3[nH]c(C)cc3C)c2[nH]1 [Perenosin 2] | 1.18e+06 |
| CCCCCc1cc2cc(C(F)(F)F)cc(/N=C/c3[nH]c(C)cc3C)c2[nH]1 [Perenosin 3] | 393000 |
| CCCc1cc2cc(C)cc(/N=C/c3[nH]c(C)cc3C)c2[nH]1 [Perenosin 4] | 468000 |
| CCCCCc1c(C)[nH]c(/C=N/c2cc(C)cc3cc[nH]c23)c1C [Perenosin 5] | 4630 |
| CCCCCc1cc2cc(C)cc(/N=C/c3[nH]c(C)c(CCCCC)c3C)c2[nH]1 [Perenosin 6] | 172000 |
| CCCCCc1cc(/N=C/c2[nH]c3ccccc3c2C)c2[nH]ccc2c1 [Perenosin 7] | 36500 |
| CCCCCc1cc2cc(C)cc(/N=C/c3[nH]c4ccccc4c3C)c2[nH]1 [Perenosin 8] | 35500 |

Same assay, conditions: one mole equivalent of HPF6, DMSO-d6/0.5% H2O

| SMILES | partial protonation of the imine nitrogen |
| --- | --- |
| CCCCCc1cc(/N=C/c2[nH]c3ccccc3c2C)c2[nH]ccc2c1 [Perenosin 7] | approximately 20% |
| CCCCCc1cc2cc(C)cc(/N=C/c3[nH]c4ccccc4c3C)c2[nH]1 [Perenosin 8] | ~10% |

Same assay, conditions: protonated perenosin, TBA-Cl, DMSO-d6/0.5% H2O, 298 K, 1:1 binding model

| SMILES | Association constant of Cl^− in the presence of HPF6 (1 equiv.), 1:1 (K a) [M⁻¹] |
| --- | --- |
| CCCCCc1cc(/N=C/c2[nH]c(C)cc2C)c2[nH]ccc2c1 [Perenosin 1d] | 605 |
| CCCCCc1cc2cc(C)cc(/N=C/c3[nH]c(C)cc3C)c2[nH]1 [Perenosin 2] | 2450 |
| CCCCCc1cc2cc(C(F)(F)F)cc(/N=C/c3[nH]c(C)cc3C)c2[nH]1 [Perenosin 3] | 3440 |
| CCCc1cc2cc(C)cc(/N=C/c3[nH]c(C)cc3C)c2[nH]1 [Perenosin 4] | 3440 |
| CCCCCc1c(C)[nH]c(/C=N/c2cc(C)cc3cc[nH]c23)c1C [Perenosin 5] | 2610 |
| CCCCCc1cc2cc(C)cc(/N=C/c3[nH]c(C)c(CCCCC)c3C)c2[nH]1 [Perenosin 6] | 78300 |
| CCCCCc1cc(/N=C/c2[nH]c3ccccc3c2C)c2[nH]ccc2c1 [Perenosin 7] | 157 |
| CCCCCc1cc2cc(C)cc(/N=C/c3[nH]c4ccccc4c3C)c2[nH]1 [Perenosin 8] | 142 |

Same assay, conditions: protonated perenosin, TBA-Cl, DMSO-d6/0.5% H2O, 298 K, 2:1 binding model

| SMILES | Association constant of Cl^− in the presence of HPF6 (1 equiv.), 2:1, K 11 [M⁻¹] | Association constant of Cl^− in the presence of HPF6 (1 equiv.), 2:1, K 21 [M⁻¹] |
| --- | --- | --- |
| CCCCCc1cc(/N=C/c2[nH]c(C)cc2C)c2[nH]ccc2c1 [Perenosin 1d] | 1750 | 190 |
| CCCCCc1cc2cc(C)cc(/N=C/c3[nH]c(C)cc3C)c2[nH]1 [Perenosin 2] | 2500 | 473 |
| CCCCCc1cc2cc(C(F)(F)F)cc(/N=C/c3[nH]c(C)cc3C)c2[nH]1 [Perenosin 3] | 190 | 2070 |
| CCCc1cc2cc(C)cc(/N=C/c3[nH]c(C)cc3C)c2[nH]1 [Perenosin 4] | 1530 | 306 |
| CCCCCc1c(C)[nH]c(/C=N/c2cc(C)cc3cc[nH]c23)c1C [Perenosin 5] | 331 | 14 |
| CCCCCc1cc2cc(C)cc(/N=C/c3[nH]c(C)c(CCCCC)c3C)c2[nH]1 [Perenosin 6] | 1090 | 158 |
| CCCCCc1cc(/N=C/c2[nH]c3ccccc3c2C)c2[nH]ccc2c1 [Perenosin 7] | 72 | 507 |
| CCCCCc1cc2cc(C)cc(/N=C/c3[nH]c4ccccc4c3C)c2[nH]1 [Perenosin 8] | 184 | 193 |

Test: NMDG-Cl assay by HPTS (H^+/Cl^− symport)
Type: biochemical
Conditions: H^+/Cl^− symport, no gramicidin or oleic acid
Protocol: The selectivity for Cl^−>H^+/OH^− transport of the perenosins was quantified using a modified NMDG-Cl assay. Unilamellar vesicles loaded with HPTS (1 mM) and N-methyl-D-glucamine chloride (NMDG-Cl) (100 mM), buffered to pH 7 with HEPES (10 mM) were prepared. Free base NMDG (0.5 M) was added increasing the extravesicular solution to pH 8, and the dissipation of this gradient following the addition of receptors was monitored. Dissipation of pH gradient indicates H^+/Cl^− symport (or the functionally equivalent OH^−/Cl^− exchange) mediated by perenosins. Gramicidin D (Gra) is a proton channel added to facilitate H^+ transport. The addition of oleic acid (OA), a naturally occurring fatty acid found in cell membranes, allowed the investigation of the enhancement in H^+/Cl^− symport, in the presence of oleic acid. Anion transporters can assist the fatty acid flip-flop mechanism by taking on the role of a flippase for fatty acid anions via binding to the anionic carboxylate head group, masking the charge and allowing rapid passage of the head group through the lipid bilayer. This in turn accelerates the natural proton transport mediated by fatty acids in biological membranes.
For all cases EC50 values were obtained from dose-response experiments and subsequent Hill analysis (see Supplementary Information). Chloride selectivity was then quantified to give a selectivity factor (SG), shown in Table 2, using the ratio of the EC50 values. From the previous cationophore coupled assays, it was evident that the capability of perenosins to facilitate electrogenic chloride transport is negligible, therefore an absence in selectivity for Cl^−>H^+/OH^− was expected. […] FOA values for the overall H^+/Cl^− cotransport rate were calculated for compounds 1d and 2–6 in the presence of OA and are also shown in Table 2. […] In the presence of fatty acids, an alternative pathway that involves the diffusion of the fatty acid complex and free fatty acids could replace this step. […] This may be likely due to the competitive binding of the receptors to the carboxylate head group so inhibiting chloride binding and transport.
S10.8. General Procedure for the HPTS Assay
Unilamellar vesicles were prepared using previously reported literature procedures16. A lipid film of POPC (1-palmitoyl-2-oleoyl-sn-glycero-3-phosphocholine) was prepared from a chloroform solution under reduced pressure and then dried under vacuum for 4 or more hours. The lipid film was rehydrated by vortexing with an internal solution containing HPTS (1 mM). The lipid suspension was then subjected to 9 freeze-thaw cycles and left to rest at room temperature for 30 minutes. After this, the suspension was extruded 25 times through a 200 nm polycarbonate membrane resulting in unilamellar vesicles of a mean diameter of 200 nm. The un-encapsulated HPTS was removed by size exclusion chromatography using a sephadex G-25 column and an external solution eluent that does not contain HPTS. The lipid solution obtained after dialysis was diluted to a standard volume (usually 10 mL) with the external buffered solution to obtain a lipid stock of known concentration.
In each experiment identical internal and external solutions were used with various salts (NMDG -Cl or sodium gluconate) buffered with HEPES (10 mM) to pH 7.0, and are detailed below.
The lipid stock was diluted with the external buffer solution to a standard volume (2.5 mL), to afford a solution with a lipid concentration of 0.1 mM. The compounds were added as a DMSO solution (10 μL) and when an assisting ionophore (gramicidin) or oleic acid (a naturally occurring monosaturated fatty acid) was used this was also added as a DMSO solution (5 μL, 0.1 mol% or 2 mol% respectively (with respect to lipid)). To start the experiment, after the addition of the compounds, a base pulse (25 μL, of NMDG or TBAOH (0.5 M)) was spiked in to generate a pH gradient across the membrane. […]

| SMILES | EC50 NMDG-Cl (by HPTS) |
| --- | --- |
| CCCCCc1cc(/N=C/c2[nH]c(C)cc2C)c2[nH]ccc2c1 [Perenosin 1d] | 0.0107 mol% and 0.01073 mol% |
| CCCCCc1cc2cc(C)cc(/N=C/c3[nH]c(C)cc3C)c2[nH]1 [Perenosin 2] | 0.00062 mol% |
| CCCCCc1cc2cc(C(F)(F)F)cc(/N=C/c3[nH]c(C)cc3C)c2[nH]1 [Perenosin 3] | 0.01151 mol% |
| CCCc1cc2cc(C)cc(/N=C/c3[nH]c(C)cc3C)c2[nH]1 [Perenosin 4] | 0.00069 mol% |
| CCCCCc1c(C)[nH]c(/C=N/c2cc(C)cc3cc[nH]c23)c1C [Perenosin 5] | 0.00231 mol% |
| CCCCCc1cc2cc(C)cc(/N=C/c3[nH]c(C)c(CCCCC)c3C)c2[nH]1 [Perenosin 6] | 0.00249 mol% |

Same assay, conditions: in the presence of gramicidin 0.1 mol%

| SMILES | EC50 (Gra) NMDG-Cl (by HPTS) [mol%] |
| --- | --- |
| CCCCCc1cc(/N=C/c2[nH]c(C)cc2C)c2[nH]ccc2c1 [Perenosin 1d] | 0.00656 |
| CCCCCc1cc2cc(C)cc(/N=C/c3[nH]c(C)cc3C)c2[nH]1 [Perenosin 2] | 0.00037 |
| CCCCCc1cc2cc(C(F)(F)F)cc(/N=C/c3[nH]c(C)cc3C)c2[nH]1 [Perenosin 3] | 0.00879 |
| CCCc1cc2cc(C)cc(/N=C/c3[nH]c(C)cc3C)c2[nH]1 [Perenosin 4] | 0.00038 |
| CCCCCc1c(C)[nH]c(/C=N/c2cc(C)cc3cc[nH]c23)c1C [Perenosin 5] | 0.00095 |
| CCCCCc1cc2cc(C)cc(/N=C/c3[nH]c(C)c(CCCCC)c3C)c2[nH]1 [Perenosin 6] | 0.00211 |

Same assay, conditions: in the presence of oleic acid 2 mol%

| SMILES | EC50 (OA) NMDG-Cl (by HPTS) [mol%] |
| --- | --- |
| CCCCCc1cc(/N=C/c2[nH]c(C)cc2C)c2[nH]ccc2c1 [Perenosin 1d] | 0.00925 |
| CCCCCc1cc2cc(C)cc(/N=C/c3[nH]c(C)cc3C)c2[nH]1 [Perenosin 2] | 0.00085 |
| CCCCCc1cc2cc(C(F)(F)F)cc(/N=C/c3[nH]c(C)cc3C)c2[nH]1 [Perenosin 3] | 0.04912 |
| CCCc1cc2cc(C)cc(/N=C/c3[nH]c(C)cc3C)c2[nH]1 [Perenosin 4] | 0.00008 |
| CCCCCc1c(C)[nH]c(/C=N/c2cc(C)cc3cc[nH]c23)c1C [Perenosin 5] | 0.00273 |
| CCCCCc1cc2cc(C)cc(/N=C/c3[nH]c(C)c(CCCCC)c3C)c2[nH]1 [Perenosin 6] | 0.00208 |
